Experimental data from US11230542B2, “Inhibitors of integrated stress response pathway” (Praxis Biotech LLC, priority 2017, dated 2022).

Assays:
Format in all cases: in vivo, mouse
[1] = system: Balb/c mice injected with CT26 colon carcinoma cell line; assay: Cachexia-induced muscle atrophy (CT26 tumor cells); conditions: 10 mg/kg daily oral gavage for 13 days
Description: Wild type six-weeks-old male Balb/c mice obtained from the vivarium Fundacion Ciencia & Vida Chile (Santiago, Chile) were used. Mice were housed in independent plastic cages in a room maintained at 25° C. with a 12-h:12-h light:dark cycle.
1×10^6 CT26 colon carcinoma cell line (ATCC #CRL-2638, ATCC Manassas, Va.) were injected subcutaneously in the right lower flank of each animal for induction of cachexia-induced muscle atrophy as described (Nat Commun. 2012 Jun. 12; 3:896). Non-injected animals were used as controls. At day 6 post tumor-cell injection, animals were randomized into two groups and treated with 10 mg/kg of compound 3 formulated in 50% Polyethylene glycol (PEG-400) in distilled water, or with vehicle (50% PEG-400 in distilled water) by daily oral gavage for 13 days.
For in vivo measurements of protein synthesis, 30 min before the study ends, animals were injected intraperitoneally with puromycin (Sigma-Aldrich, P8833) at 0.04 μmol/g body weight in a volume of 200 μL of PBS. […]
(§1) Upon collection, muscles were immediately frozen in liquid nitrogen and then stored at −80° C. […] Protein concentration in supernatants was determined using BCA Protein Assay Kit (Pierce). […]
Puromycin (12D10) (Merck Millipore) and β-actin (Sigma-Aldrich) antibodies were used as primary antibodies. […] Quantification of protein bands was done by densitometry using ImageJ software.

fasted Balb/c mice = assay: Fasting-induced muscle atrophy; conditions: 10 mg/kg oral
Description: Wild type eight-weeks-old male Balb/c mice obtained from the vivarium Fundacion Ciencia & Vida Chile (Santiago, Chile) were used. Mice were housed in independent plastic cages in a room maintained at 25° C. with a 12-h:12-h light:dark cycle.
Twenty-four hours before and during the 2 days of fasted procedures, animals received oral administration via feeding tubes (15 gauge) of vehicle (50% Polyethylene glycol 400 (Sigma-Aldrich P3265) in distilled water or 10 mg/kg of compound 3 formulated in vehicle solution.
After 2 days of fasting the animals were sacrificed and muscles were removed from both hindlimbs. Mice with feed and water ad libitum were used as control.
For in vivo measurements of protein synthesis, puromycin (Sigma-Aldrich, P8833) was prepared at 0.04 μmol/g body weight in a volume of 200 μL of PBS, and subsequently administered into the animals via IP injection, 30 min prior to muscle collection.
as §1
(§2) Puromycin (12D10) (Merck Millipore) and β-actin (Sigma-Aldrich) antibodies were used as primary antibodies. […] Quantification of protein bands was done by densitometry using ImageJ software. […]

[2] = system: Balb/c mice with immobilized hindlimb; assay: Immobilization-induced muscle atrophy; conditions: 10 mg/kg oral, 3 days immobilization
Description: Wild type eight-weeks-old male Balb/c mice obtained from the vivarium Fundacion Ciencia & Vida Chile (Santiago, Chile) were used. Mice were housed in independent plastic cages, fed ad libitum in a room maintained at 25° C. with a 12-h:12-h light:dark cycle.
Twenty-four hours before and during the 3 days of immobilization procedures, animals received oral administration via feeding tubes (15 gauge) of vehicle (50% Polyethylene glycol 400 (Sigma-Aldrich P3265) in distilled water or 10 mg/kg of compound 3 formulated in vehicle.
One hindlimb was immobilized with a plastic stick placed over and under the limb and fixed with a medical adhesive bandage. Animals were daily monitored. The immobilization procedure prevented movement of the immobilized leg alone. After 3 days, the animals were sacrificed and gastrocnemius, quadriceps and tibialis anterior muscles were removed from both hindlimbs, the contralateral, non-immobilized leg being used as an internal control. […]
as §1, §2

Structure (SMILES): O=C(COc1ccc(Cl)cc1)N[C@H]1CC[C@H](NC[C@@H](O)COc2ccc(Cl)cc2)CC1 (single isomer, unassigned) [Compound 3, (+)-2-(4-chlorophenoxy)-N-(4-((3-(4-chlorophenoxy)-2-hydroxypropyl)amino)cyclohexyl)acetamide]
- muscle weight (gastrocnemius, quadriceps, tibialis anterior) [1]: prevented the CT26-induced muscle weight loss
- protein synthesis in muscle ([1]; quadriceps and tibialis anterior, versus vehicle): significantly increase protein synthesis
- protein synthesis, puromycin staining in muscle fiber CSA (fasted Balb/c mice): partial recovery of protein synthesis
- protein synthesis in immobilized hindlimb muscle ([2]; gastrocnemius): partial recovery of protein synthesis
- protein synthesis in immobilized hindlimb muscle ([2]; tibialis anterior and quadriceps): complete recovery of protein synthesis
